Results from US9746480B2, “Human myeloid derived suppressor cell cancer markers” (University of Southern California, priority 2011, dated 2017).
Entries after “also recorded” stand apart in the source; their conditions may differ.

Experiments:
[1] = system: CD33^+ MDSC; test: qRT-PCR gene expression in treated CD33+ MDSC; assay type: cell-based, human; settings: treated vs untreated CD33+ MDSC, mRNA
[2] = system: CD11b^+ MDSC; test: qRT-PCR gene expression in treated CD11b+ MDSC; assay type: cell-based, human; settings: treated vs untreated CD11b+ MDSC, mRNA
[3] = system: CD33^+ MDSC; test: Suppression Assay in presence or absence of specific inhibitors of MDSC suppressive mechanisms; assay type: cell-based, human; settings: tumor cell line-induced CD33+ MDSC, CD3/CD28-stimulated autologous T cells, with inhibitor
Method: Further characterization of tumor-induced canonical CD33^+ MDSC subset by analysis of the expression of putative MDSC suppression genes was performed. For these studies, expression of putative suppression genes was measured in tumor cell line-induced MDSC, including those induced by SCCL-MT1 HNSCC cell line and those induced by 4-998 osteogenic sarcoma, DU 145 prostate carcinoma, CAKI-1 renal cell carcinoma, SK-OV-3 ovarian carcinoma, and SW 608 and SW 732 colorectal adenocarcinoma cell lines (FIG. 6A), and compared to expression levels in normal, non-suppressive CD33^+ myeloid cells from medium only cultures. […] To determine the dominant mechanism of T cell suppression by this canonical CD33^+ MDSC subset, suppression assays were repeated in the presence or absence of specific inhibitors of ARG-1 (nor-NOHA), iNOS (L-NMMA), NOX2 (apocynin), VEGF (neutralizing antibody Avastin), or TGFβ1 (SB431542 or neutralizing antibody 1D11).

[4] = system: CD33^+ MDSC; test: Reversal of suppressive function of tumor cell line-induced CD33+ MDSC by drugs; assay type: cell-based, human; settings: drug-treated CD33+ MDSC
[5] = system: CD11b^+ MDSC; test: Functional inhibition of tumor cell line-induced CD11b+ MDSC by drugs; settings: drug-treated CD11b+ MDSC

Compound	ARG-1 expression [1]	C/EBPβ expression [1]	HIF1α expression [1]	NOX2-component NCF1 expression [1]	STAT3 expression [1]	iNOS expression [1]	ARG-1 expression [2]	C/EBPβ expression [2]	HIF1α expression [2]	NOX2-component NCF1 expression [2]	STAT3 expression [2]	iNOS expression [2]	suppression of T cell proliferation by CD33+ MDSC [3]	CD33+ MDSC suppressive function [4]	CD11b+ MDSC suppressive function [5]
lipopolysaccharide	increased expression	further up-regulation	further up-regulation	increased expression	further up-regulation	increased expression	increased expression	further up-regulation	further up-regulation	increased expression	further up-regulation	increased expression			
N=C(NO)NCC[C@H](N)C(=O)O [nor-NOHA]													statistically significant decreases in suppression		
CC1=C(/C=C/C(C)=C/C=C/C(C)=C/C(=O)O)C(C)(C)CCC1 [ATRA]			decreased		decreased			decreased	no change		no change			Inhibition; also recorded: Reversal	Functional inhibition
COc1cc(C(C)=O)ccc1O [apocynin]													statistically significant decreases in suppression		
